# From article PMC4630399, “Charge-Based Inhibitors of Amylin Fibrillization and Toxicity” (Journal of Diabetes Research, 2015)
# “Also recorded” adds a separate entry of the source. Where two headings read alike, the source gives them in different places. Positions of bridges follow the written chain, without caps; N, C: chain ends. Residues, ends and D or L forms follow the SMILES beside them. No end group written: not given here.
# Tests used:
# WT-amylin fibrillization = details: cited from earlier work
# Source text: In type 2 diabetes, the positively charged 37-residue hormone amylin misfolds into cationic fibrils which have been implicated in the destruction of the pancreatic β-cells that make insulin and amylin, thus contributing to pathology. Amylin is a particularly favorable system for investigating the roles of charges in fibrillization, since the core of the intermolecular β-sheet fibril structure has only one pH-titratable group, His18 [9]. The histidine acts as an electrostatic switch, inhibiting fibrillization in its charged state at acidic pH and favoring fibrillization in its uncharged ... || An IC50 analysis of the inhibition data was performed to obtain quantitative information (Figure 5). The Arg-1 concentration-dependence for the inhibition of WT-amylin fibril elongation rates gives an IC50 value of 0.6 ± 0.5 μM. For Arg-2 and Mem-T, the IC50 values are ~10 μM (Figure 5(a)). In addition to effecting elongation rates, Arg-2 increases the lag times for WT-amylin fibrillization with an IC50 of ~0.1 μM. […] Moreover, addition of a single charged lysine residue ...
# [1] = tested on: MIN6 mouse model of pancreatic β-cells; details: melittin compared with 160 μM WT-amylin
# Procedure: (§1) The stock solutions were diluted with FBS-free DMEM and sonicated continuously for 5 min at 75% amplitude before use. FBS was subsequently added to a concentration of 15% (v/v), giving final amylin concentrations of 40, 80, and 160 μM. The final DMSO concentration for all cytotoxicity experiments was 1% (v/v).
# (§2) Cytotoxicity was measured using the mouse insulinoma 6 (MIN6) cell line model of β-pancreatic cells, which were a gift from Dr. Anil Rustgi (University of Pennsylvania). Cells were seeded at a density of 20,000 per 100 μL in black clear-bottom 96-well plates. The cells were grown in DMEM with 15% FBS, 25 mM glucose, 2 mM L-glutamine, […] sodium pyruvate, 55 μM β-mercaptoethanol, 1000 units/mL penicillin, and 100 μg/mL streptomycin, for 20 h at 37°C in a humidified incubator with 5% CO2. […] The cells were incubated for another 24 h followed by the addition of 10% (v/v) of the redox indicator dye Alamar Blue at the concentration supplied by the manufacturer (Invitrogen). Fluorescence, due to the reduction of Alamar Blue by viable cells, was measured after 6 h, using excitation and emission wavelengths of 544 and 590 nm, respectively. Cell viability was calculated from the ratio of Alamar Blue fluorescence in treated to untreated cells. Uncertainties were calculated as the SEMs of triplicate measurements.
# [2] = ThT assay of fibrillization kinetics, peptides alone; assay type: physicochemical; details: 20 μM peptide, 150 mM NaCl
# Procedure: (§3) The time course of fibrillization in solution was monitored using 100–200 μL amylin samples, contained in white polystyrene clear bottom 96-well plates (Corning Inc., Corning, NY). Plates were covered with a clear polyester sealing tape (Fisher Scientific, Agawam, MA) to prevent evaporation. Stock solutions of 1.1 mM WT-amylin and inhibitor peptides were prepared in 100% DMSO, which dissolves and disaggregates amylin fibrils, and were stored at −80°C when not in use. Starting from the 1.1 mM stock solutions in 100% DMSO, samples for fibrillization reactions were prepared to contain 20 μM amylin and 10 μM ultrapure ThT, in 20 mM sodium phosphate buffer, pH 7.4, and a final DMSO concentration of 2% (v/v). For experiments using larger 400 μM concentrations of Arg-2 and Mem-T, the solutions were prepared by diluting 100% DMSO stock solutions of 20 mM peptide to a final DMSO concentration of 2% (v/v). Amylin was the last component added to the samples for the kinetic reactions, in order to reduce the dead time for the experiments. The plates were incubated at 25°C without agitation. Fluorescence intensity was recorded at 2 min intervals with excitation at 440 nm and emission at 490 nm on a Fluoroskan Ascent 2.5 fluorescence plate reader. Fibrillization reactions for the peptides alone were performed in triplicate and for analog-peptide inhibition of WT-amylin in duplicate, to estimate experimental uncertainties in kinetic parameters.
# [3] = tested on: WT-amylin cytotoxicity towards MIN6 mouse model of pancreatic β-cells; test: Protection of MIN6 cells against WT-amylin cytotoxicity (Alamar Blue)
# Procedure: as §1, §2
# [4] = TEM of aggregates formed by peptides alone; assay type: physicochemical; details: 80 μM peptide, 2 days, 20 mM phosphate pH 7.4, 37°C, no agitation
# Procedure: (§4) Samples containing 80 μM concentrations of WT-amylin and the three analogs were incubated without agitation at a temperature of 37°C in 20 mM phosphate buffer (pH 7.4). For the inhibition reactions, samples contained WT-amylin at an 80 μM concentration, together with 160 μM of Arg-1, Arg-2, or Mem-T analogs. Aliquots from the reactions were removed after 2 days for TEM imaging. The aliquots were blotted onto carbon-coated 400-mesh Maxtaform copper grids (Ted Pella Inc. Redding, CA) for 1–3 min, followed by negative staining with 1% uranyl acetate. TEM images were recorded on an FEI Tecnai G^2 Spirit BioTwin transmission electron microscope equipped with an AMT XR-40 camera.
# WT-amylin [5] = biological target: T1, WT-amylin (Homo sapiens, UniProt P10997); test: TEM of WT-amylin fibrils formed in presence of inhibitor peptides; assay type: biochemical; set-up: purchased Biopeptide (San Diego, CA); host or cells: solid-phase synthesis; details: 80 μM WT-amylin with 160 μM analog, 20 mM sodium phosphate pH 7.4, 1% DMSO, 37°C, 24 h
# T1 sequence (P10997 34-70 limits assumed): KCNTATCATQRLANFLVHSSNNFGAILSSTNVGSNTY
# Procedure: as §4
# Figure 8 TEM images of fibrils formed from 80 μM WT amylin in the presence or absence of inhibitor peptides. (a) WT amylin alone, (b) with 160 μM Arg-1, (c) with 160 μM Arg-2, and (d) with 160 μM Mem-T. Aliquots were removed for TEM imaging 24 h after the fibrillization reactions were started. Reactions were carried out in 20 mM sodium phosphate (pH 7.4), 1% DMSO (v/v), at 37°C.
# WT-amylin [6] = biological target: T1, WT-amylin; test: ThT assay, inhibition of WT-amylin fibrillization by analogs added in trans; assay type: biochemical; set-up: purchased Biopeptide (San Diego, CA); host or cells: solid-phase synthesis; details: for reduction of WT-amylin elongation rate: Arg-1 between 0 and 200 μM
# Procedure: as §3, with “Starting from the 1.1 mM stock solutions in 100% DMSO, samples for fibrillization reactions were prepared to contain 20 μM amylin and 10 μM ultrapure ThT, in 20 mM sodium phosphate buffer, pH 7.4, and a final DMSO concentration of 2% (v/v).” left out
# [7] = tested on: MIN6 models of pancreatic β-cells; details: neutral pH, cited from earlier work
# Source text: In type 2 diabetes, the positively charged 37-residue hormone amylin misfolds into cationic fibrils which have been implicated in the destruction of the pancreatic β-cells that make insulin and amylin, thus contributing to pathology. Amylin is a particularly favorable system for investigating the roles of charges in fibrillization, since the core of the intermolecular β-sheet fibril structure has only one pH-titratable group, His18 [9]. The histidine acts as an electrostatic switch, inhibiting fibrillization in its charged state at acidic pH and favoring fibrillization in its uncharged ... || The motivation for the studies described in this work was to see if electrostatic charge repulsion could be exploited to design new types of inhibitors of amylin fibrillization and cytotoxicity. […] Moreover, addition of a single charged lysine residue ...
compound,measurement,setting,value
heparin,effect on WT-amylin fibrillization,WT-amylin fibrillization,enhance fibrillization of WT-amylin
melittin,"viability of MIN6 cells, positive control",[1],comparable to the value obtained with the potent toxin melittin
CC[C@H](C)[C@H](NC(=O)[C@H](C)NC(=O)CNC(=O)[C@H](Cc1ccccc1)NC(=O)[C@H](CC(N)=O)NC(=O)[C@H](CC(N)=O)NC(=O)[C@H](CO)NC(=O)[C@H](CO)NC(=O)[C@H](Cc1c[nH]cn1)NC(=O)[C@H](CCCNC(=N)N)NC(=O)[C@H](CCCNC(=N)N)NC(=O)[C@H](CCCNC(=N)N)NC(=O)[C@H](CCCNC(=N)N)NC(=O)[C@H](C)NC(=O)[C@H](CC(C)C)NC(=O)[C@H](CCCNC(=N)N)NC(=O)[C@H](CCC(N)=O)NC(=O)[C@@H](NC(=O)[C@H](C)NC(=O)[C@@H]1CSSC[C@H](NC(=O)[C@@H](N)CCCCN)C(=O)N[C@@H](CC(N)=O)C(=O)N[C@@H]([C@@H](C)O)C(=O)N[C@@H](C)C(=O)N[C@@H]([C@@H](C)O)C(=O)N1)[C@@H](C)O)C(=O)N[C@@H](CC(C)C)C(=O)N[C@@H](CO)C(=O)N[C@@H](CO)C(=O)N[C@H](C(=O)N[C@@H](CC(N)=O)C(=O)N[C@H](C(=O)NCC(=O)N[C@@H](CO)C(=O)N[C@@H](CC(N)=O)C(=O)N[C@H](C(=O)N[C@@H](Cc1ccc(O)cc1)C(N)=O)[C@@H](C)O)C(C)C)[C@@H](C)O [Arg-1] (H-KCNTATCATQRLARRRRHSSNNFGAILSSTNVGSNTY-NH2; disulfide 2-7 (inferred); N-terminus assumed),increase of lag time compared to WT-amylin,[2],about 2 fold
same,reduction of elongation rate compared to WT-amylin,[2],about 30%
same,fibrillization detected (ThT),"[2]; pH 7.4, 25°C",detect fibrillization
same,fibrillization lag time,"[2]; 20 mM sodium phosphate pH 7.4, 10 μM ThT, 2% DMSO, 25°C, no agitation, fluorescence ex 440/em 490 nm, triplicate",210 min
same,fibril elongation rate,"[2]; 20 mM sodium phosphate pH 7.4, 10 μM ThT, 2% DMSO, 25°C, no agitation, triplicate",0.0068 min⁻¹
same,protection against WT-amylin cytotoxicity (overall),"[3]; MIN6 cells, 80 μM WT-amylin, up to 2 : 1 inhibitor : WT-amylin",protects against WT-amylin cytotoxicity
same,IC50,"[3]; mouse, 24 h",~50 µM
same,aggregate morphology by TEM,[4],formed much fewer fibrils; also recorded: formed a larger proportion of short fibrils than WT-amylin; also recorded: fewer fibrils with shorter lengths
same,TEM of WT-amylin fibrils formed with inhibitor,WT-amylin [5],somewhat fewer fibrils and a greater amount of short fibrils
same,effect on WT-amylin fibrillization lag time,"WT-amylin [6]; 20 μM WT-amylin, 150 mM NaCl",no effects on the lag times within experimental uncertainty
same,effect on steady-state fluorescence plateau,"WT-amylin [6]; 20 μM WT-amylin, 150 mM NaCl",reduction in the steady-state fluorescence plateaus; also recorded: only observed to decrease with the Arg-1 analog
same,reduction of WT-amylin fibril elongation rate,"WT-amylin [6]; 20 μM WT-amylin, 150 mM NaCl, analog 0.001 to 120 μM",8–10 fold
same,reduction of WT-amylin elongation rate,"WT-amylin [6]; 20 μM WT-amylin, 150 mM NaCl",7 fold
same,reduction of WT-amylin elongation rate,"WT-amylin [6]; 20 μM WT-amylin, absence of salt",4 fold
same,"effect on WT-amylin lag times, elongation rates and fluorescence plateaus","WT-amylin [6]; 80 μM WT-amylin, increasing Arg-1, 150 mM NaCl",increases in lag times with increasing Arg-1 concentration as well as decreases in elongation rates and steady-state fluorescence plateaus
"H18R: H18R mutant of amylin (KCNTATCATQRLANFLVRSSNNFGAILSSTNVGSNTY; not fully specified (C-terminus); ends and bridges not checked; UniProt P10997 34-70, looked up, variant H18R)",cytotoxicity to β-cells,[7],not cytotoxic to β-cells
same,cytotoxicity to β-cells,[7]; listed as Substitution of a positively charged arginine at position 18,lowers cytotoxicity to MIN6 models of pancreatic β-cells compared to WT-amylin
